# ChEMBL document CHEMBL5653615 (J Biol Chem, 2013)
# Key:
# [1] = molecular target: Tyrosine-protein kinase ABL1 (Homo sapiens) (UniProt P00519); test: Inhibition of human ABL1 at 18.6 nM by HotSpot assay relative to control
# [2] = molecular target: Cyclin-dependent kinase 2/cyclin E1 (Homo sapiens) (UniProt P24864+P24941); test: Inhibition of human CDK2/cyclin E at 18.6 nM by HotSpot assay relative to control; type: protein-complex assay
# [3] = molecular target: CDK6/cyclin D3 (Homo sapiens) (UniProt P30281+Q00534); test: Inhibition of human CDK6/cyclin D3 at 18.6 nM by HotSpot assay relative to control; type: protein-complex assay
# [4] = molecular target: T1, Myotonin-protein kinase (Homo sapiens) (UniProt Q09013); test: Inhibition of human DMPK at 18.6 nM by HotSpot assay relative to control
# T1 sequence (whole entry): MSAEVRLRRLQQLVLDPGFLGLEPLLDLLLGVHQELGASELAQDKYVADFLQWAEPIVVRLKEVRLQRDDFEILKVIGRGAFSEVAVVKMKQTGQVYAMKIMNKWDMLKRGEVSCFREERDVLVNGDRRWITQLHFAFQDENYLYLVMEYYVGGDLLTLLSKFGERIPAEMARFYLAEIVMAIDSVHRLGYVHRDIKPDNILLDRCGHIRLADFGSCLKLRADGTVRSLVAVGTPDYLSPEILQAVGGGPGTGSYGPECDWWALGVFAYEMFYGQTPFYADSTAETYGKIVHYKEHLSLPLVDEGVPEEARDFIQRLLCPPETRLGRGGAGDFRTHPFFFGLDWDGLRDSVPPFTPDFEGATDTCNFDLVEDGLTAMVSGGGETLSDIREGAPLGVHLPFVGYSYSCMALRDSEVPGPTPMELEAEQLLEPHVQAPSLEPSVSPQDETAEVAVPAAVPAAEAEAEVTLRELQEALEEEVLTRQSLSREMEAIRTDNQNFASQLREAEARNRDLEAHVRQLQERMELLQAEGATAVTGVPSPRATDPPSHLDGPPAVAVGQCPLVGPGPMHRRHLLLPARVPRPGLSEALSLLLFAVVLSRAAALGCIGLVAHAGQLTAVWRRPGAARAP
# [5] = molecular target: T2, Protein kinase C epsilon type (Homo sapiens) (UniProt Q02156); test: Inhibition of human PKCepsilon at 18.6 nM by HotSpot assay relative to control
# T2 sequence (whole entry): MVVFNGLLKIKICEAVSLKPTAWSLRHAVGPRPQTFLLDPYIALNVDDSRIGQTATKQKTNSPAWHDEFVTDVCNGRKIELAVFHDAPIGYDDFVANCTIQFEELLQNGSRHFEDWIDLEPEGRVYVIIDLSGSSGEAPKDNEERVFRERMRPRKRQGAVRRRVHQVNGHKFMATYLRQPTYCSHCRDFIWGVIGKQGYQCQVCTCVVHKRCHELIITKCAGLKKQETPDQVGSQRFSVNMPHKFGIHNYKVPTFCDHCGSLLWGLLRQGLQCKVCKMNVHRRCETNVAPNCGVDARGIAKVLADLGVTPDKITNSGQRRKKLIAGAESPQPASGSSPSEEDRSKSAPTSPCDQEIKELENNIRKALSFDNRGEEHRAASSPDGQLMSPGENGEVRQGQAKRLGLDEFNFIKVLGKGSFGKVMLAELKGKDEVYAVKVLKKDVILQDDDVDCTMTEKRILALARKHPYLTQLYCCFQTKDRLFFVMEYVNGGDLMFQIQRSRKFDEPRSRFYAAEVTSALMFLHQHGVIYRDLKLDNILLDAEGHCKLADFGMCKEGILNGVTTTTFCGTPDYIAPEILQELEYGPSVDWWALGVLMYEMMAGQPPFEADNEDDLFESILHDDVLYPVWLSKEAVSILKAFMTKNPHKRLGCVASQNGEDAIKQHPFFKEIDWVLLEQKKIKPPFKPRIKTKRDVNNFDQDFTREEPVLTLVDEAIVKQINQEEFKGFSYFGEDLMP
# [6] = molecular target: Proto-oncogene tyrosine-protein kinase receptor Ret (Homo sapiens) (UniProt P07949); test: Inhibition of human RET at 18.6 nM by HotSpot assay relative to control
# Proto-oncogene tyrosine-protein kinase receptor Ret (Homo sapiens), sequence (P07949 whole entry): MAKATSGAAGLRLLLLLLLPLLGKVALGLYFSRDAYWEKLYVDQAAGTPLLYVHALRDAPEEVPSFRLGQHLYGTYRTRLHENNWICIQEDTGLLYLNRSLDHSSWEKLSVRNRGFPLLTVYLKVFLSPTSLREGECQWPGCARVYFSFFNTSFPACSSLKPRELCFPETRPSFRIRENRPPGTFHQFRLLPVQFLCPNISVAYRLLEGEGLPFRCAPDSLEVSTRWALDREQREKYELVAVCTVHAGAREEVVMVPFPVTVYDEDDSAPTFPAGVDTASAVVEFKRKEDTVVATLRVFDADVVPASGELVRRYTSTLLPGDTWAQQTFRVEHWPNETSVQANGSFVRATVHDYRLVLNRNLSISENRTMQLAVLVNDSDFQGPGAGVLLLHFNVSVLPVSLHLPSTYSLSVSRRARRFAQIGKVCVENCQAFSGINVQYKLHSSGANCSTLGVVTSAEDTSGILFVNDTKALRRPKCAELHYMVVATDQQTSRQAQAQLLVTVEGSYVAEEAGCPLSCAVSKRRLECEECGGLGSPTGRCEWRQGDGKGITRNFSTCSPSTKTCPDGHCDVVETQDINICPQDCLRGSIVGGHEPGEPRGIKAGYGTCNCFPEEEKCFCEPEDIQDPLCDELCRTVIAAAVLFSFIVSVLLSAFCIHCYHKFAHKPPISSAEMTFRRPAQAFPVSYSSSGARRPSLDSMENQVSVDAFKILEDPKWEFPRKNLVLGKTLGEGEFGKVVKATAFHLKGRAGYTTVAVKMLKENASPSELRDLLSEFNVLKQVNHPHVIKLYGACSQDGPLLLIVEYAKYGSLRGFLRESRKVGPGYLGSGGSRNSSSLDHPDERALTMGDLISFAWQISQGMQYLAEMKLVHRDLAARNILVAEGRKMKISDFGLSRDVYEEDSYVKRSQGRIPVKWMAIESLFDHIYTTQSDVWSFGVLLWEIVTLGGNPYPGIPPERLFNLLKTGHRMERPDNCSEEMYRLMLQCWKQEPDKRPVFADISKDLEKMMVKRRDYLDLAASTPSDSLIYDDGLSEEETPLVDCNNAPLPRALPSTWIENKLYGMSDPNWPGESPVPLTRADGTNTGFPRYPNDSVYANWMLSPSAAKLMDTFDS
# [7] = molecular target: T3, Tyrosine-protein kinase JAK3 (Homo sapiens) (UniProt P52333); test: Inhibition of human JAK3 at 1.82 nM by HotSpot assay relative to control
# T3 sequence (whole entry): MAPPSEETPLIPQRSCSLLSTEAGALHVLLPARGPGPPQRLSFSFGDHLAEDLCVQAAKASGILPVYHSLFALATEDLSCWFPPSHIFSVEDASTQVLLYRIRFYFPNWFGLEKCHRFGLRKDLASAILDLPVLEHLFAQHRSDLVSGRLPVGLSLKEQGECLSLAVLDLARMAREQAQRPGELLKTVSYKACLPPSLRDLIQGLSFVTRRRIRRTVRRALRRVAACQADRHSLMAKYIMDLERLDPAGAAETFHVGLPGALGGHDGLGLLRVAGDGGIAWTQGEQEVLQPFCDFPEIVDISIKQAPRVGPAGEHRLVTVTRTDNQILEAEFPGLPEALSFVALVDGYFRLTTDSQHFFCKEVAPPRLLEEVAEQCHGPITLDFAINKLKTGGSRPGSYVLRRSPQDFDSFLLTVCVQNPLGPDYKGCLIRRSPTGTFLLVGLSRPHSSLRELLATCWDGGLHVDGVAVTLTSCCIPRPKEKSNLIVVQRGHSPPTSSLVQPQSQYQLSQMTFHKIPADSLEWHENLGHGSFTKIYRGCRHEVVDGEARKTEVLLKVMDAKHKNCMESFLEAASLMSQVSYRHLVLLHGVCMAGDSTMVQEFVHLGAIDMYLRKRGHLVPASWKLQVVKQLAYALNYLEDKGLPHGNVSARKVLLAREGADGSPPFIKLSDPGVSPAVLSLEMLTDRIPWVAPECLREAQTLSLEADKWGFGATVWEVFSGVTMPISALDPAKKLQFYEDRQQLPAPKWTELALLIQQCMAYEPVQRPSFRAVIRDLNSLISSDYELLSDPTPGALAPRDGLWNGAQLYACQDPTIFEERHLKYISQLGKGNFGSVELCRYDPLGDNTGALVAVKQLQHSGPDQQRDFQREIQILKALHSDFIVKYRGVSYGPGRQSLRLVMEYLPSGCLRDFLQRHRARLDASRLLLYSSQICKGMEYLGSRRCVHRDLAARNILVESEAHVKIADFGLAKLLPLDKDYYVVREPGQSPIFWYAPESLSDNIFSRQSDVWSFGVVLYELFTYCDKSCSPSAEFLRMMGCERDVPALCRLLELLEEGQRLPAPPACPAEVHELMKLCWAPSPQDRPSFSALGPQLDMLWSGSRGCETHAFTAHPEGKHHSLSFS
# [8] = molecular target: Angiopoietin-1 receptor (Homo sapiens) (UniProt Q02763); test: Inhibition of human TEK at 1.82 nM by HotSpot assay relative to control
# Angiopoietin-1 receptor (Homo sapiens), sequence (Q02763 whole entry): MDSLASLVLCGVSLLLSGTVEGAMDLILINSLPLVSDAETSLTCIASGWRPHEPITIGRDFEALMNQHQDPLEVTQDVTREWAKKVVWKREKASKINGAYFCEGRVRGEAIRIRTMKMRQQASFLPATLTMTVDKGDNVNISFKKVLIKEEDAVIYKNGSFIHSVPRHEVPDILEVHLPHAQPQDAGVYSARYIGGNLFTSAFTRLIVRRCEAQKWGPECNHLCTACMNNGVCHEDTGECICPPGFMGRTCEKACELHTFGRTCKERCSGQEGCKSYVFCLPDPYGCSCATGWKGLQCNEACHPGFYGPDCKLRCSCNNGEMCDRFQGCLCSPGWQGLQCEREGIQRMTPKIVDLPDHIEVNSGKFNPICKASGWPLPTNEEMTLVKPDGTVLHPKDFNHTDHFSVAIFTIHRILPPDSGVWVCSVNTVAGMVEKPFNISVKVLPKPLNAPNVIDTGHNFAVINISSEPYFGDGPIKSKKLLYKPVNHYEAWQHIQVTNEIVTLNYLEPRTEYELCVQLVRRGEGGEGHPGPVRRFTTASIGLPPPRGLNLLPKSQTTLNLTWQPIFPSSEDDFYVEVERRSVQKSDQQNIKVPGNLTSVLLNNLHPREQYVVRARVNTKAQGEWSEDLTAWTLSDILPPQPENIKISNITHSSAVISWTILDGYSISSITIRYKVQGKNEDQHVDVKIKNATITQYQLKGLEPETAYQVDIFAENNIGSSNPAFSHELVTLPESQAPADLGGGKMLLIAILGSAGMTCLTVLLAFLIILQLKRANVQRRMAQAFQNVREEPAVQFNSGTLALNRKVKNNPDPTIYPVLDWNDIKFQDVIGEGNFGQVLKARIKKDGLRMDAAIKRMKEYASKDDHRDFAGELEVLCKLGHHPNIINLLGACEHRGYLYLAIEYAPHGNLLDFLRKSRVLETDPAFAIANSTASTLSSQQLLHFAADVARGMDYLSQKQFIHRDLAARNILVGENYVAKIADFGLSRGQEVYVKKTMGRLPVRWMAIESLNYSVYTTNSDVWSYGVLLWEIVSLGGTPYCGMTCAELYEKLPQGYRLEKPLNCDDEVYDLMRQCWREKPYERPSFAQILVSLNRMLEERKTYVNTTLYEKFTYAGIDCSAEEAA
# [9] = molecular target: High affinity nerve growth factor receptor (Homo sapiens) (UniProt P04629); test: Inhibition of human TRKA at 1.82 nM by HotSpot assay relative to control
# High affinity nerve growth factor receptor (Homo sapiens), sequence (P04629 33-796 limits assumed): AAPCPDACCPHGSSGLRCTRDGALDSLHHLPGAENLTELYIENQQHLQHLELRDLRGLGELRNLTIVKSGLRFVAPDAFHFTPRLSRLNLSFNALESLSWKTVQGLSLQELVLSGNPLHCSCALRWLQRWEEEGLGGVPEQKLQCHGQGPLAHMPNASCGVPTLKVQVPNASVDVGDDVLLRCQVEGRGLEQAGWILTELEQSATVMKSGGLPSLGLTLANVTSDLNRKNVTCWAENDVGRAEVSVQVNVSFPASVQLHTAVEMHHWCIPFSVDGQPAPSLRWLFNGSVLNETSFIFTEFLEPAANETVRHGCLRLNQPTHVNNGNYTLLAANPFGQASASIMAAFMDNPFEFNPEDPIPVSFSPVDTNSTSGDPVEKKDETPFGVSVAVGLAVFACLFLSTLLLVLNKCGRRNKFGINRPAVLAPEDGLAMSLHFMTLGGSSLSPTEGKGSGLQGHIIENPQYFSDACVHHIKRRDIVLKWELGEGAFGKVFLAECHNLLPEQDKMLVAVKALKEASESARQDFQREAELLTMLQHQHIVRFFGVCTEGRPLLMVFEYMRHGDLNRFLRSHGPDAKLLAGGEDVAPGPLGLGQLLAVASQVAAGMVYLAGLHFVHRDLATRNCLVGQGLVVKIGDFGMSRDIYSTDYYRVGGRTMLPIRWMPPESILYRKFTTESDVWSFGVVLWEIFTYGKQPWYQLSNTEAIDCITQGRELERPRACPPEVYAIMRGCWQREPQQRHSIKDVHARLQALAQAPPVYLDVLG
# Tyrosine-protein kinase ABL1 (Homo sapiens), sequence (P00519 whole entry): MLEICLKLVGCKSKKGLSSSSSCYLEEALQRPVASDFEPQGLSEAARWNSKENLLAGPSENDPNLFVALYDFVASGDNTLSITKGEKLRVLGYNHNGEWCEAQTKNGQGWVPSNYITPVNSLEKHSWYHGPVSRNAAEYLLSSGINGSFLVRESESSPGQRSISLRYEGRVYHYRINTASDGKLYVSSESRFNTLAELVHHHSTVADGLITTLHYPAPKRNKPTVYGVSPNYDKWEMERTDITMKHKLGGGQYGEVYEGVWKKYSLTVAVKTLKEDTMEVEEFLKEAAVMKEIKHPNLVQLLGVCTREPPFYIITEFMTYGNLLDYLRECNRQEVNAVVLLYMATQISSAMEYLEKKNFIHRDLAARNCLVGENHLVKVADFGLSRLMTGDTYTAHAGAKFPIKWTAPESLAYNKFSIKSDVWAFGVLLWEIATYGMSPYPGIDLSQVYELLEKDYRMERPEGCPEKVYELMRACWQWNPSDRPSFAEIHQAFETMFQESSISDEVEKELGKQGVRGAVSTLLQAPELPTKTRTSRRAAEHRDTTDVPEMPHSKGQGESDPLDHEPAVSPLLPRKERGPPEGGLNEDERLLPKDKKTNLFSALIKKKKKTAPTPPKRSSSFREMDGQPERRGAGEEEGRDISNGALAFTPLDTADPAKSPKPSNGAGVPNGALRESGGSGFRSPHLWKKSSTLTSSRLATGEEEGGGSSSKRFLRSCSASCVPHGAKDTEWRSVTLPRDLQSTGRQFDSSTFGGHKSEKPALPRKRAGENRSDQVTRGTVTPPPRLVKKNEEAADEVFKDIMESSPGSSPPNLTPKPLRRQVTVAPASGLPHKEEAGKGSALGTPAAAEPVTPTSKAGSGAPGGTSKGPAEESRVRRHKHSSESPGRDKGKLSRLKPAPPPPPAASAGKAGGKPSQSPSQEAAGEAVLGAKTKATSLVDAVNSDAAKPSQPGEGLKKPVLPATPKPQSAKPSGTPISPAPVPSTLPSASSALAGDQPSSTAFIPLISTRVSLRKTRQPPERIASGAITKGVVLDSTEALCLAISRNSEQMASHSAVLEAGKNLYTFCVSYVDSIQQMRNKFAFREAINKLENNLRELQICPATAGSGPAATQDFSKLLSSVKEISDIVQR
inhibition [1],inhibition [2],inhibition [3],inhibition [4],inhibition [5],inhibition [6],inhibition [7],inhibition [8],inhibition [9],SMILES
9.07%,2.03%,-9.8%,-3.25%,-9.61%,15.8%,,,,C[C@]1(O)C[C@@H](c2nc(-c3ccc4ccc(-c5ccccc5)nc4c3)c3c(N)nccn32)C1
,,,,,,-1.99%,4%,21.1%,C[C@@]1(C(=O)Nc2ccc(F)nc2)CCCN1c1nc(Nc2cc(C3CC3)n[nH]2)c2cccn2n1
